Key:
[1] = molecular target: Sterol 14-alpha demethylase (Trypanosoma cruzi (strain CL Brener), UniProt Q7Z1V1); assay: GSK_TCAKS: pIC50 CYP51 from Trypanosoma cruzi.; format: functional
Leishmania donovani [2] = assay: (§1) GSK_TCAKS: pIC50 Leishmania donovani Imaging: THP-1 Host Macrophages. Assay plates (384-well) were prepared by adding 250nL of compound to each well. For single shot assay, the final compound concentration was 5 uM. […] Automated image analysis was performed with a script developed on Acapella High Content Imaging and Analysis Software (PerkinElmer). Output: THP-1 cell count were reported for each well.; format: functional, organism-based, Homo sapiens
Trypanosoma cruzi [3] = assay: (§2) GSK_TCAKS: pIC50 H2C9 Imaging: H9c2 Host Cardiomyocytes. […] Cells were then washed once with PBS before infection. T. cruzi trypomastigotes, collected at days 5 to 8 after infection from LLC-MK2 parasite infected cultures, were allowed to swim out for 4h at 37C from a centrifuged pellet (2,500 rpm/10 min/room temperature). Trypomastigotes were then collected and counted in a CASY Cell Counter. Trypomastigotes, in supplemented DMEM, were added to H9c2 cultures in a multiplicity of infection of 1 and incubated for 18 h. Cells were washed once with PBS before incubation of the infected H9c2 monolayer with trypsin (Life-Technologies) to detach cells from the flask. Cells were counted in a CASY Cell Counter using a 150 um capillary and their density set at 5 * 10^4 cells per mL in supplemented assay DMEM. Infected H9c2 were dispensed into 384-well poly-lysine coated assay plates at 50uL per well using a Multidrop Combi dispenser. After seeding them, the plates were incubated at 37C, 5% CO2 for 72h. Cultures were then fixed and stained by addition of 50 uL of a solution containing 8% formaldehyde and 4 uM DRAQ5 DNA dye (BioStatus, UK) per well. […] Five images were collected per well for reliable statistical analysis. Automated image analysis was performed with a script developed on Acapella High Content Imaging and Analysis Software (PerkinElmer). Output: Number of H9c2 Host Cardiomyocytes nuclei to determine drug-related cytotoxicity.; format: functional, organism-based, Rattus norvegicus; conditions: H9c2, 4 h
Leishmania donovani [4] = assay: as §1, with “Amastigotes/Macrophages.” for “THP-1 Host Macrophages.”, “Average number of amastigotes per macrophage” for “THP-1”, “cell” for “cell count”; format: functional, organism-based, Homo sapiens; conditions: THP-1
Trypanosoma cruzi [5] = assay: as §2, with “Trypanosoma cruzi” for “H2C9”, “Infected Cells.” for “H9c2 Host Cardiomyocytes.”, “percentage” for “Number”, “infected cells per well as a second infection marker.” for “H9c2 Host Cardiomyocytes nuclei to determine drug-related cytotoxicity.”; format: functional, organism-based, Rattus norvegicus; conditions: H9c2, 4 h
Leishmania donovani [6] = assay: GSK_TCAKS: pIC50 Leishmania donovani viability assay using fluorescence intensity. Assay plates (1536-well) were prepared by adding 30nL per well of compound. For single shot assay, the final compound concentration was 5uM. […] Briefly, eGFP LdBOB axenic amastigotes were harvested, fixed and counted in a CASY cell counter (Roche-Applied Science). A final concentration of 1.5 * 10^5 cells per well were prepared in amastigote media containing 500 U/mL penicillin/streptomycin (Invitrogen) and 6uL was dispensed to each experimental well using a Multidrop Combi dispenser (Thermo Scientific). 6uL of assay media was dispensed to control columns used as reference for 100% compound response. Following incubation for 72 h at 37C, 5% CO2, 2 uL of resazurin was added to each well at a final concentration of 0.5 mM in phosphate buffered saline (PBS) with IGEPAL (Sigma-Aldrich), 0.05% (v/v).; format: functional, organism-based
[7] = GSK_TCAKS: pIC50 HepG2 human cell line viability assay using luminiscence. […] Seeding density was checked to ensure that new mono-layers were not more than 50% confluent at the time of harvesting. Cell suspension was added to 500 mL of the same medium at a final density of 1.2 * 10^5 cells/mL. This cell suspension was dispensed (25 uL, 3000 cells per well) into 384-well clear-bottom plates using a Multidrop Combi dispenser. Prior to addition of the cell suspension, the screening compounds (250 nL) were pre-dispensed into the plates with an Echo liquid handler. Plates were incubated for 48 h at 37C, 5% CO2. After incubation, plates equilibrated at room temperature for 30 min before proceeding to develop the luminescent signal. The signal developer, CellTiter-Glo Reagent, was allowed to equilibrate at room temperature for 30 min and added to the plates (25uL per well) using a Multidrop Combi dispenser. Plates were left for 10 min at room temperature for stabilization and then read using a ViewLux.; format: toxicity, cell-based
Trypanosoma cruzi [8] = assay: as §2, with “Trypanosoma cruzi” for “H2C9”, “Amastigotes/Cell.” for “H9c2 Host Cardiomyocytes.”, “number” for “Number”, “amastigotes per cell as infection level measurement.” for “H9c2 Host Cardiomyocytes nuclei to determine drug-related cytotoxicity.”; format: functional, organism-based, Rattus norvegicus; conditions: H9c2, 4 h
[9] = test system: Trypanosoma brucei brucei; assay: GSK_TCAKS: pIC50 Trypanosoma brucei viability assay using fluorescence intensity. Assay plates (1536-well) were prepared by dispensing 25nL of compound solution per well using an Echo acoustic dispenser (Labcyte).; format: functional, organism-based; conditions: Lister 427, 2 h
Leishmania donovani [10] = assay: as §1, with “Infected” for “THP-1 Host”, “Percent of infected macrophage cells” for “THP-1 cell count”; format: functional, organism-based, Homo sapiens; conditions: THP-1
Trypanosoma cruzi [11] = assay: GSK_TCAKS: pIC50 Trypanosoma cruzi viability assay using beta-GAL activity. This assay was run at single shot at 5uM compound concentration per well. The biological reagents consisted of NIH-3T3 host cells and trypomastigotes parasitic cells; both cell types were set to a 3.3 * 10^5 cells/mL dilution in assay DMEM by means of a CASY cell counter device using a 60um capillary. 6 uL of the mixture were dispensed per well (about 1 * 10^3 host-cells and 1 * 10^3 parasites) with a Multidrop Combi dispenser. […] In all wells, the percentage of DMSO never exceeded 0.5%. Plates incubated for four days at 37C, 5% CO2. The substrate used for the assay fluorescence intensity (FLINT) readout was resorufin-beta-D-galactopiranoside (Sigma-Aldrich) at 5uM per well. It was diluted in PBS supplemented with the soft detergent Igepal (Fluka).; format: functional, organism-based, Mus musculus; conditions: Tulahuen, NIH3T3
[12] = test system: Trypanosoma brucei brucei; assay: GSK_TCAKS: pIC50 Trypanosoma brucei viability assay using luminiscence. Assay plates (1536-well) were prepared. T. brucei cultures were harvested and counted in a CASY cell counter. A parasite suspension was prepared at a final concentration of 5 * 10^4 cells/mL in complete HMI9 medium and 6uL was dispensed to all wells containing compounds using a Multidrop Combi dispenser. 6uL of HMI9 media with 0.4% DMSO were dispensed to control columns. Plates were incubated for 24 h at 37C, 5% CO2 then tempered for 10 min at room temperature. ATP content was quantified by adding 4 uL of CellTiter-Glo Reagent (Promega) according to the manufacturer's instructions. Luminescence was measured using a ViewLux.; format: functional, organism-based; conditions: Lister 427, CASY

Sterol 14-alpha demethylase, sequence (Q7Z1V1 whole entry): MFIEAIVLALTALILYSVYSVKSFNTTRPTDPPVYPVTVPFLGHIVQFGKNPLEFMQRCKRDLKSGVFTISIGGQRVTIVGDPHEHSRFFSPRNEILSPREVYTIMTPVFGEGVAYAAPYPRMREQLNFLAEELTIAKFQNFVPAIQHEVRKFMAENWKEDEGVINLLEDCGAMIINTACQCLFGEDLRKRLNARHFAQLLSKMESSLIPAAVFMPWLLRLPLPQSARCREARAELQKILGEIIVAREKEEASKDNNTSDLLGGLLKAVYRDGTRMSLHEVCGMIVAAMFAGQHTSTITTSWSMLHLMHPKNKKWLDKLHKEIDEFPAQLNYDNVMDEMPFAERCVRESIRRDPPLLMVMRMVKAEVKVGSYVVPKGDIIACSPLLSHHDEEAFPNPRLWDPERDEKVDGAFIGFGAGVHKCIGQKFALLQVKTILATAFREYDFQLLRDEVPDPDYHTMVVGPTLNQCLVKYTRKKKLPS

Row | Structure (SMILES) | IC50 [1] [µM] | IC50 (Leishmania donovani [2]) [µM] | IC50 (Trypanosoma cruzi [3]) [µM] | IC50 (Leishmania donovani [4]) [µM] | IC50 (Trypanosoma cruzi [5]) [µM] | IC50 (Leishmania donovani [6]) [µM] | IC50 at 48 h [7] [µM] | IC50 (Trypanosoma cruzi [8]) [µM] | IC50 [9] [µM] | IC50 (Leishmania donovani [10]) [µM] | IC50 (Trypanosoma cruzi [11]) [µM] | IC50 [12] [µM]
1 | O=C(NCCc1csc(-c2ccc(F)cc2)n1)c1cccs1 | 25.1 | > 50.1 | > 50.1 | 20 | 0.398 | > 50.1 | > 100 | 0.251 | 0.251 | > 50.1 | 0.398 | 0.2
2 | O=C(NCCc1csc(-c2cccc(F)c2)n1)c1ccco1 | > 100 | > 50.1 | 10 | > 50.1 | 1.58 | > 50.1 | > 100 | 1.26 | 0.501 | > 50.1 | 1.58 | 0.631
3 | O=C(Nc1ccccc1)Nc1nc(-c2ccccn2)cs1 | 31.6 | 6.31 | 1 | 0.251 | 1 | 1.58 | 25.1 | 0.631 | 1 | 0.398 | 0.631 | 1
4 | O=C(Nc1nc(-c2ccccn2)cs1)C1CCc2ccccc2C1 (stereo not drawn) | 25.1 | 7.94 | 3.98 | 0.398 | 2.51 | 5.01 | 39.8 | 2 | 3.16 | 0.631 | 2 | 3.16
5 | COc1ccc(-c2cnc(NC(=O)c3ccc(F)cc3)n2C)cc1 | 10 | > 50.1 | > 50.1 | 0.501 | 5.01 | 3.16 | > 100 | 2 | 1.26 | 1.26 | 2.51 | 3.16
6 | O=C(O)[C@H]1C[C@@H]1c1ccc(-c2ccc(CN(CCc3ccccn3)C(=O)C3CCC3)cc2)cc1 | 20 | > 50.1 | > 50.1 | > 50.1 | 31.6 | 25.1 | > 100 | 31.6 | 0.631 | > 50.1 | > 50.1 | 0.794
7 | CN(C)CCN(C)Cc1ccc(Cl)cc1NS(=O)(=O)c1ccc(Cl)c(Cl)c1 | 31.6 | 31.6 | 5.01 | 3.98 | 2 | 5.01 | 31.6 | 2 | 7.94 | 6.31 | 1.12 | 3.98
8 | O=C(Nc1nc2ccccc2[nH]1)c1c(O)c2cccc3c2n(c1=O)CC3 | > 100 | > 50.1 | 10 | 1 | 15.8 | 2.51 | 10 | 25.1 | 15.8 | 2 | 20 | 20
9 | N#Cc1ccc(C(=O)Nc2cccc(-c3cccc(CN4CCC(O)CC4)c3)c2)cc1 | 25.1 | 15.8 | 31.6 | 7.94 | 7.94 | > 50.1 | 39.8 | 7.94 | 0.794 | 15.8 | 5.01 | 0.794
